Measured values as given in ChEMBL document CHEMBL5532761, “Rosavin improves insulin resistance and alleviates hepatic and kidney damage via modulating the cGAS-STING pathway and autophagy signaling in HFD/STZ-induced T2DM animals” (2024).
The source made the active and inactive calls. The rule behind the calls is not given here.

How the values were obtained:
[1] = system: Rattus norvegicus; test: (§1) Antidiabetic activity in high fat diet-STZ induced diabetic Wistar rat model assessed as triglyceride level at 10 mg/kg, ip pretreated with high fat diet for 4 weeks followed by 8 hrs fasting after STZ administration and measured 4 weeks after compound treatment (reference value: 17.05 +/- 0.803 mmol/L); format: functional
[2] = system: Rattus norvegicus; test: (§2) Antidiabetic activity in ip dosed high fat diet-STZ induced diabetic Wistar rat model assessed as reduction of ZBP1 mRNA expression in kidney pretreated with high fat diet for 4 weeks followed by 8 hrs fasting after STZ administration and measured 4 weeks after compound treatment by RT-qPCR analysis; format: functional, organism-based; conditions: dose 10-30 mg/kg
[3] = system: Rattus norvegicus; test: (§3) Antidiabetic activity in high fat diet-STZ induced diabetic Wistar rat model assessed as reduction in abnormal infiltrates in liver at 20 mg/kg, ip pretreated with high fat diet for 4 weeks followed by 8 hrs fasting after STZ administration and measured 4 weeks after compound treatment by hematoxylin and eosin staining based microscopic analysis; format: functional, organism-based
[4] = system: Rattus norvegicus; test: Antidiabetic activity in high fat diet-STZ induced diabetic Wistar rat model assessed as intact hepatocytes by measuring reduction in persistent fatty changes at 20 mg/kg, ip pretreated with high fat diet for 4 weeks followed by 8 hrs fasting after STZ administration and measured 4 weeks after compound treatment by hematoxylin and eosin staining based microscopic analysis; format: functional, organism-based
[5] = system: Rattus norvegicus; test: as §3, with “interstitial inflammatory cell infiltration” for “abnormal infiltrates”, “kidney” for “liver”, “10” for “20”; format: functional, organism-based
[6] = system: Rattus norvegicus; test: as §3, with “luminal exfoliation of epithelial cells” for “abnormal infiltrates”, “kidney” for “liver”, “30” for “20”; format: functional, organism-based
[7] = system: Rattus norvegicus; test: (§4) Antidiabetic activity in high fat diet-STZ induced diabetic Wistar rat model assessed as mean area percentage of LC3B in liver at 10 mg/kg, ip pretreated with high fat diet for 4 weeks followed by 8 hrs fasting after STZ administration and measured after 4 weeks of compound treatment by immunohistochemistry based microscopic analysis (reference value: 0.742 +/- 0.143 %); format: functional
[8] = system: Rattus norvegicus; test: as §3, with “preserved integrity of tubular epithelium” for “reduction”, “kidney” for “abnormal infiltrates in liver”, “20 to 30” for “20”; format: functional, organism-based; conditions: dose 20-30 mg/kg
[9] = system: Rattus norvegicus; test: as §3, with “protection against periportal mononuclear inflammatory cell infiltration” for “reduction in abnormal infiltrates”, “10” for “20”; format: functional, organism-based
[10] = system: Rattus norvegicus; test: as §1, with “urine albumin to creatinine ratio” for “triglyceride level”, “87.13” for “17.05”, “9.75 mg/g)” for “0.803 mmol/L)”; format: functional
[11] = system: Rattus norvegicus; test: as §3, with “focal necrotic lesions” for “abnormal infiltrates”; format: functional, organism-based
[12] = system: Rattus norvegicus; test: (§5) Antidiabetic activity in high fat diet-STZ induced diabetic Wistar rat model assessed as creatinine level at 30 mg/kg, ip pretreated with high fat diet for 4 weeks followed by 8 hrs fasting after STZ administration and measured 4 weeks after compound treatment (reference value: 3.88 +/- 0.502 mg%); format: functional
[13] = system: Rattus norvegicus; test: as §1, with “cholesterol” for “triglyceride”, “20” for “10”, “10.39” for “17.05”, “1.3” for “0.803”; format: functional
[14] = system: Rattus norvegicus; test: as §2, with “DDX58” for “ZBP1”; format: functional, organism-based; conditions: dose 10-30 mg/kg
[15] = system: Rattus norvegicus; test: as §5, with “glucose” for “creatinine”, “level in serum” for “level”, “20” for “30”, “527.7” for “3.88”, “49.1” for “0.502”; format: functional
[16] = system: Rattus norvegicus; test: (§6) Antidiabetic activity in ip dosed high fat diet-STZ induced diabetic Wistar rat model assessed as reduction of STING mRNA expression in liver pretreated with high fat diet for 4 weeks followed by 8 hrs fasting after STZ administration and measured 4 weeks after compound treatment by RT-qPCR analysis; format: functional, organism-based; conditions: dose 10-30 mg/kg
[17] = system: Rattus norvegicus; test: Antidiabetic activity in high fat diet-STZ induced diabetic Wistar rat model assessed as AST level at 20 mg/kg, ip pretreated with high fat diet for 4 weeks followed by 8 hrs fasting after STZ administration and measured 4 weeks after compound treatment (reference value: 136.3 +/- 22.8 IU/L); format: functional
[18] = system: Rattus norvegicus; test: as §4, with “TNF alpha” for “LC3B”, “18.28” for “0.742”, “1.31” for “0.143”; format: functional
[19] = system: Rattus norvegicus; test: Antidiabetic activity in high fat diet-STZ induced diabetic Wistar rat model assessed as creatinine level at 20 mg/kg, ip pretreated with high fat diet for 4 weeks followed by 8 hrs fasting after STZ administration and measured 4 weeks after compound treatment (reference value: 3.88 +/- 0.502 mg%); format: functional
[20] = system: Rattus norvegicus; test: Antidiabetic activity in high fat diet-STZ induced diabetic Wistar rat model assessed as ALT level at 10 mg/kg, ip pretreated with high fat diet for 4 weeks followed by 8 hrs fasting after STZ administration and measured 4 weeks after compound treatment (reference value: 152.1 +/- 23.64 IU/L); format: functional
[21] = system: Rattus norvegicus; test: as §6, with “in” for “in ip dosed”, “increase in AC074117.2 lncRNA” for “reduction of STING mRNA”, “liver at 10 to 30 mg/kg, ip” for “liver”; format: functional, organism-based; conditions: dose 10-30 mg/kg
[22] = system: Rattus norvegicus; test: as §1, with “20” for “10”; format: functional
[23] = system: Rattus norvegicus; test: as §1, with “LDL-cholesterol” for “triglyceride”, “6.54” for “17.05”, “0.918” for “0.803”; format: functional
[24] = system: Rattus norvegicus; test: as §1, with “HDL-cholesterol” for “triglyceride”, “20” for “10”, “0.688” for “17.05”, “0.288” for “0.803”; format: functional
[25] = system: Rattus norvegicus; test: Antidiabetic activity in high fat diet-STZ induced diabetic Wistar rat model assessed as urine albumin to creatinine ratio at 30 mg/kg, ip pretreated with high fat diet for 4 weeks followed by 8 hrs fasting after STZ administration and measured 4 weeks after compound treatment (reference value: 87.13 +/- 9.75 mg/g); format: functional
[26] = system: Rattus norvegicus; test: as §2, with “adipose tissue” for “kidney”; format: functional, organism-based; conditions: dose 10-30 mg/kg
[27] = system: Rattus norvegicus; test: as §2, with “DDX58” for “ZBP1”, “adipose tissue” for “kidney”; format: functional, organism-based; conditions: dose 10-30 mg/kg
[28] = system: Rattus norvegicus; test: as §4, with “TNF alpha” for “LC3B”, “20” for “10”, “18.28” for “0.742”, “1.31” for “0.143”; format: functional
[29] = system: Rattus norvegicus; test: as §1, with “insulin” for “triglyceride”, “level in serum” for “level”, “treatment by ELISA” for “treatment”, “16.53” for “17.05”, “1.14 microU/ml)” for “0.803 mmol/L)”; format: functional
[30] = system: Rattus norvegicus; test: as §3, with “inflammatory cell” for “abnormal”, “30” for “20”; format: functional, organism-based
[31] = system: Rattus norvegicus; test: as §3, with “tubular dilation” for “abnormal infiltrates”, “kidney” for “liver”, “30” for “20”; format: functional, organism-based
[32] = system: Rattus norvegicus; test: as §4, with “kidney” for “liver”, “20” for “10”, “2.47” for “0.742”, “0.356” for “0.143”; format: functional

O[C@@H]1[C@@H](O)[C@H](OC/C=C/c2ccccc2)O[C@H](CO[C@@H]2OC[C@H](O)[C@H](O)[C@H]2O)[C@H]1O
Activity [1]: 8.52 mmol/L | Activity [2]: Dose-Dependent Effect | Activity [3]: Active | Activity [4]: Active | Activity [5]: Active | Activity [6]: Active | Activity [7]: 2.22% | Activity [8]: Active | Activity [9]: inactive | Activity [10]: 50.75 mg/g | Activity [11]: Active | Activity [12]: 0.769 mg% | Activity [13]: 4.27 mmol/L | Activity [14]: Dose-Dependent Effect | Activity [15]: 174.8 mg% | Activity [16]: Dose-Dependent Effect | Activity [17]: 54.5 IU/L | Activity [18]: 11.3% | Activity [19]: 1.51 mg% | Activity [20]: 79.5 IU/L | Activity [21]: Active | Activity [22]: 6.46 mmol/L | Activity [23]: 3.19 mmol/L | Activity [24]: 1.06 mmol/L | Activity [25]: 20.88 mg/g | Activity [26]: Dose-Dependent Effect | Activity [27]: Dose-Dependent Effect | Activity [28]: 8.75% | Activity [29]: 13.88 uU/ml | Activity [30]: Active | Activity [31]: Active | Activity [32]: 11.23%
